target: human Factor XIa (Homo sapiens (Human), UniProt P03951); experiment: Factor XIa Assay; assay type: biochemical; conditions: purified human Factor XIa 40 pM, Z-Gly-Pro-Arg-AFC 100 μM, pH 7.4; read-out: FXIa Ki
Description: The effectiveness of a compound of the present invention as an inhibitor of Coagulation Factor XIa can be determined using a relevant purified serine protease, and an appropriate synthetic substrate. The rate of hydrolysis of the chromogenic or fluorogenic substrate by the relevant serine protease was measured both in the absence and presence of compounds of the present invention. Assays were conducted at room temperature or at 37° C. […] A decrease in the rate of fluorescence change in the presence of inhibitor is indicative of enzyme inhibition. Such methods are known to one skilled in the art. The results of this assay are expressed as the inhibitory constant, Ki.
Factor XIa determinations were made in 50 mM HEPES buffer at pH 7.4 containing 150 mM NaCl, 5 mM CaCl2, and 0.1% PEG 8000 (polyethylene glycol; JT Baker or Fisher Scientific). Determinations were made using purified human Factor XIa at a final concentration of 40 pM (Sekisui Diagnostics) and he synthetic substrate, Z-Gly-Pro-Arg-AFC, TFA salt (Sigma #C0980) at a concentration of 100 μM.
Times required to achieve equilibration between enzyme and inhibitor were determined in control experiments. Initial velocities of product formation in the absence (Vo) or presence of inhibitor (Vi) were measured. Assuming competitive inhibition, and that unity is negligible compared Km/[S], [I]/e, and [I]/e (where [S], [I], and e respectively represent the total concentrations, of substrate, inhibitor and enzyme), the equilibrium constant (Ki) for dissociation of the inhibitor from the enzyme can be obtained from the dependence of Vo/Vi on [I] shown in the following equation.

Chain of human Factor XIa (P03951 388-625): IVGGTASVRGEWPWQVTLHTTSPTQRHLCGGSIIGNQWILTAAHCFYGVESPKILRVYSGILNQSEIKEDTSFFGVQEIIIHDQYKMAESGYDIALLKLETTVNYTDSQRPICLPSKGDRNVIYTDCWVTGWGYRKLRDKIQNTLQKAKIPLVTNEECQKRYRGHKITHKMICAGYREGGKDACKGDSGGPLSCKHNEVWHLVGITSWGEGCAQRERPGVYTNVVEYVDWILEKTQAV
Chain of human Factor XIa (P03951 19-387 partner): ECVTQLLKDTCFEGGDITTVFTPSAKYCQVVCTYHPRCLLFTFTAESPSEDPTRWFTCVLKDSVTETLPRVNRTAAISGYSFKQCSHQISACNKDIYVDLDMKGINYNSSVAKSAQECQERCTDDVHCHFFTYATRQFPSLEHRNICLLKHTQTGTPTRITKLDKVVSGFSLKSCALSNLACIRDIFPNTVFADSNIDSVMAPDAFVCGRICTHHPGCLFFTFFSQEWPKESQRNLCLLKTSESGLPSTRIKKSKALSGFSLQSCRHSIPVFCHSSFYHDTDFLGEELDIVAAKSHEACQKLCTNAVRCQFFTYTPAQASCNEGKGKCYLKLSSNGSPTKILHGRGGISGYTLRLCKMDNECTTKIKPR

Compared with `COC(=O)Nc1ccc(C(=O)NCC(=O)N2CCC3(C2)OC(=O)Nc2ccc(Cl)cc23)cc1` (racemic) [Example 23, methyl (4-((2-(6-chloro-2-oxo-1,2-dihydrospiro[benzo[d][1,3]oxazine-4,3′-pyrrolidin]-1′-yl)-2-oxoethyl)carbamoyl)phenyl)carbamate], `COC(=O)Nc1ccc(C(=O)NC(Cc2cc[nH]n2)C(=O)N2CCC3(C2)OC(=O)Nc2ccc(Cl)cc23)cc1` (racemic) [Example 28, methyl (4-((1-(6-chloro-2-oxo-1,2-dihydrospiro[benzo[d][1,3]oxazine-4,3′-pyrrolidin]-1′-yl)-1-oxo-3-(1H-pyrazol-3-yl)propan-2-yl)carbamoyl)phenyl)carbamate] is 3.9-fold lower in Ki: 0.248 µM for the first, 0.0637 µM for the second.

Going from `COC(=O)Nc1ccc(C(=O)NC2(C(=O)N3CCC4(C3)OC(=O)Nc3ccc(Cl)cc34)Cc3ccccc3C2)cc1` (racemic) [Example 26, methyl (4-((2-(6-chloro-2-oxo-1,2-dihydrospiro[benzo[d][1,3]oxazine-4,3′-pyrrolidin]-1′-ylcarbonyl)-2,3-dihydro-1H-inden-2-yl)carbamoyl)phenyl)carbamate] to `COC(=O)Nc1ccc(C(=O)N[C@@H](Cc2ccccc2)C(=O)N2CCC[C@]3(C2)OC(=O)Nc2ccc(Cl)cc23)cc1` [Example 3a, methyl (4-(((S)-1-((S)-6-chloro-2-oxo-1,2-dihydrospiro[benzo[d][1,3]oxazine-4,3′-piperidin]-1′-yl)-1-oxo-3-phenylpropan-2-yl)carbamoyl)phenyl)carbamate], the Ki falls from ≥ 5 µM to 0.815 µM.

Going from `COC(=O)Nc1ccc(C(=O)N[C@@H](Cc2ccccc2)C(=O)N2CCC3(C2)NC(=O)Nc2ccc(Cl)cc23)cc1` (single isomer, unassigned) [Example 19a] to `COC(=O)Nc1ccc(C(=O)N[C@@H](Cc2ccccc2)C(=O)N2CC3(C2)OC(=O)Nc2ccc(Cl)cc23)cc1` [Example 5, (S)-methyl (4-((1-(6′-chloro-2′-oxo-1′,2′-dihydrospiro[azetidine-3,4′-benzo[d][1,3]oxazin]-1-yl)-1-oxo-3-phenylpropan-2-yl)carbamoyl)phenyl)carbamate], the Ki rises from 5 µM to > 5 µM.

Compared with `COC(=O)Nc1ccc(C(=O)N[C@@H](Cc2ccccc2)C(=O)N2CCC3(C2)NC(=O)Nc2ccc(Cl)cc23)cc1` (single isomer, unassigned) [Example 19b], `COC(=O)Nc1ccc(C(=O)N[C@@H](Cc2ccccc2)C(=O)N2CCCCC3(C2)OC(=O)Nc2ccc(Cl)cc23)cc1` (stereo partly drawn) [Example 4, methyl (4-(((2S)-1-(6′-chloro-2′-oxo-1′,2′-dihydrospiro[azepane-3,4′-benzo[d][1,3]oxazin]-1-yl)-1-oxo-3-phenylpropan-2-yl)carbamoyl)phenyl)carbamate] is 6.5-fold higher in Ki: 0.708 µM for the first, 4.6 µM for the second. The first binds more tightly here.

Compared with `COC(=O)Nc1ccc(C(=O)NC(C[C@@H]2CCCO2)C(=O)N2CCC[C@@]3(C2)OC(=O)Nc2ccc(Cl)c(F)c23)cc1` (single isomer, unassigned) [Example 116B], `COC(=O)Nc1ccc(C(=O)NC(C[C@H]2CCCO2)C(=O)N2CCC[C@@]3(C2)OC(=O)Nc2ccc(Cl)c(F)c23)cc1` (single isomer, unassigned) [Example 117B] is 24-fold higher in Ki: 0.00421 µM for the first, 0.0999 µM for the second.

First: COC(=O)Nc1ccc(-c2nc(C(Cc3ccccc3)C(=O)N3CCCC4(C3)OC(=O)Nc3ccc(Cl)c(F)c34)[nH]c2Cl)cc1 (single isomer, unassigned) [Example 126A, methyl (4-(5-chloro-2-(1-(6-chloro-5-fluoro-2-oxo-1,2-dihydrospiro[benzo[d][1,3]oxazine-4,3′-piperidin]-1′-yl)-1-oxo-3-phenylpropan-2-yl)-1H-imidazol-4-yl)phenyl)carbamate]
Second: COC(=O)Nc1ccc(-c2ncc(C(Cc3ccccc3)C(=O)N3CCC[C@@]4(C3)OC(=O)Nc3ccc(Cl)c(F)c34)[nH]2)cc1 (single isomer, unassigned) [Example 130A]
The Ki of the first is 5.2-fold higher: 1.88 µM for the first, 0.36 µM for the second. The second binds more tightly here.

Going from `COC(=O)Nc1ccc(-c2nc(C(Cc3ccccc3)C(=O)N3CCCC4(C3)OC(=O)Nc3ccc(Cl)c(F)c34)[nH]c2Cl)cc1` (single isomer, unassigned) [Example 126B, methyl (4-(5-chloro-2-(1-(6-chloro-5-fluoro-2-oxo-1,2-dihydrospiro[benzo[d][1,3]oxazine-4,3′-piperidin]-1′-yl)-1-oxo-3-phenylpropan-2-yl)-1H-imidazol-4-yl)phenyl)carbamate] to `COC(=O)Nc1ccc(-c2ncc(C(Cc3ccccc3)C(=O)N3CCC[C@@]4(C3)OC(=O)Nc3ccc(Cl)c(F)c34)[nH]2)cc1` (single isomer, unassigned) [Example 130B], the Ki rises from 0.154 µM to > 0.875 µM. The first binds more tightly here.

First: COC(=O)Nc1ccc(-c2nnc(C(Cc3ccccc3)C(=O)N3CC[C@@]4(C3)OC(=O)Nc3ccc(Cl)c(F)c34)o2)cc1 (single isomer, unassigned) [Example 129B]
Second: COC(=O)Nc1ccc(C(=O)N[C@@H](Cc2ccccc2)C(=O)N2CCC[C@]3(C2)OC(=O)Nc2ccc(F)cc23)cc1 [Example 8b, methyl (4-(((S)-1-((S)-6-fluoro-2-oxo-1,2-dihydrospiro[benzo[d][1,3]oxazine-4,3′-piperidin]-1′-yl)-1-oxo-3-phenylpropan-2-yl)carbamoyl)phenyl)carbamate]
The Ki of the first is 16-fold lower: 0.321 µM for the first, 5 µM for the second.

Going from `O=C1Nc2ccc(Cl)cc2[C@@]2(CCCN(C(=O)C(Cc3ccc(F)cc3)c3nc4ccc(C(=O)O)cc4[nH]3)C2)O1` (single isomer, unassigned) [Example 132A (isomer A)] to `COC(=O)Nc1ccc(C(=O)N[C@@H](Cc2ccccc2)C(=O)N2CC[C@]3(C2)OC(=O)Nc2ncc(Cl)cc23)cc1` [Example 1a, methyl (4-(((S)-1-((S)-6-chloro-2-oxo-1,2-dihydrospiro[pyrido[2,3-d][1,3]oxazine-4,3′-pyrrolidin]-1′-yl)-1-oxo-3-phenylpropan-2-yl)carbamoyl)phenyl)carbamate], the Ki rises from 0.0617 µM to 3.47 µM (56-fold).

Going from `O=C1Nc2ccc(Cl)cc2[C@@]2(CCCN(C(=O)C(Cc3ccc(F)cc3)c3nc4ccc(C(=O)O)cc4[nH]3)C2)O1` (single isomer, unassigned) [Example 132A (isomer B)] to `COC(=O)Nc1ccc(C(=O)N[C@@H](Cc2ccccc2)C(=O)N2CC[C@@]3(C2)OC(=O)Nc2ncc(Cl)cc23)cc1` [Example 1b, methyl (4-(((S)-1-((R)-6-chloro-2-oxo-1,2-dihydrospiro[pyrido[2,3-d][1,3]oxazine-4,3′-pyrrolidin]-1′-yl)-1-oxo-3-phenylpropan-2-yl)carbamoyl)phenyl)carbamate], the Ki falls from 0.449 µM to 0.246 µM (1.8-fold).

`COC(=O)Nc1ccc(C(=O)N[C@@H](Cc2ccccc2)C(=O)N2CC[C@@]3(C2)OC(=O)Nc2ccccc23)cc1` [Example 2, methyl (4-(((S)-1-oxo-1-((R)-2-oxo-1,2-dihydrospiro[benzo[d][1,3]oxazine-4,3′-pyrrolidin]-1′-yl)-3-phenylpropan-2-yl)carbamoyl)phenyl)carbamate] showed a Ki of 0.22 µM.

same assay, conditions: read-out: FXIa Ki

In the case of `O=C1Nc2ccc(Cl)cc2C2(CCN(C(=O)[C@H](Cc3ccccc3)NC(=O)c3ccc(C(=O)O)cc3)C2)O1` (single isomer, unassigned) [Example 140a], the Ki is reported as 1.6 µM.
Work on `O=C1Nc2ccc(Cl)cc2C2(CCN(C(=O)[C@H](Cc3ccccc3)NC(=O)c3ccc(C(=O)O)cc3)C2)O1` (single isomer, unassigned) [Example 140b] yielded a Ki of 5 µM.

Source: patent US10093683B2, “Factor XIa inhibitors” (Merck Sharp & Dohme Corp., priority 2014, dated 2018)
